Source: PMC11828871, “Structural basis of anticancer drug recognition and amino acid transport by LAT1” (Nature Communications, 2025)

Experiments:
[1] = molecular target: T1, LAT1 (Homo sapiens, UniProt Q01650); experiment: cryo-EM structure ([…] Å, occluded); cis inhibition and counterflow assays in oocytes
T1 construct: gene SLC7A5; LAT1–CD98hc in lipid nanodiscs with Fab170; with CD98hc (4F2hc; SLC3A2)

[2] = molecular target: T1, LAT1; experiment: cryo-EM structure (outward-open, nanodisc)
[3] = molecular target: T1, LAT1; experiment: cryo-EM structure in nanodiscs ([…] Å); IC50 from L-[…]Leu uptake in Xenopus oocytes; type: cell-based
[4] = molecular target: T2, LAT1 (Homo sapiens, UniProt Q01650, F252W); experiment: inhibition of L-[…]Leu uptake in Xenopus oocytes; type: cell-based
T2 construct: gene SLC7A5; F252W LAT1 co-expressed with CD98hc in Xenopus oocytes; with CD98hc (4F2hc; SLC3A2)
T2 sequence (Q01650 whole entry F252W): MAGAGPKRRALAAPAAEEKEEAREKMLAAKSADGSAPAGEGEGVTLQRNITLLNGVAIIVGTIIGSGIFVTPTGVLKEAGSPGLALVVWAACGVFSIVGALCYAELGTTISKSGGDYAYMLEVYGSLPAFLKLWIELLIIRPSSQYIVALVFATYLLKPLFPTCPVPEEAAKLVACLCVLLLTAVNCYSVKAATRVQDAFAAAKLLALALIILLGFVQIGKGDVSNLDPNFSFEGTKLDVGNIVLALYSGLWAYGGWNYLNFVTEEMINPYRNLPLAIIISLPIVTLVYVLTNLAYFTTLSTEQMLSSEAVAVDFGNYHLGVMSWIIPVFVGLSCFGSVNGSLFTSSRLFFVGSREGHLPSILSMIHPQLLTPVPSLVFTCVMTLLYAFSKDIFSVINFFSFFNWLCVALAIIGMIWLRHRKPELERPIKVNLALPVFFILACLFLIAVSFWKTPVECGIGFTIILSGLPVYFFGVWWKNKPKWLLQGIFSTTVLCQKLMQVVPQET
T2 sequence (P08195 103-630 partner): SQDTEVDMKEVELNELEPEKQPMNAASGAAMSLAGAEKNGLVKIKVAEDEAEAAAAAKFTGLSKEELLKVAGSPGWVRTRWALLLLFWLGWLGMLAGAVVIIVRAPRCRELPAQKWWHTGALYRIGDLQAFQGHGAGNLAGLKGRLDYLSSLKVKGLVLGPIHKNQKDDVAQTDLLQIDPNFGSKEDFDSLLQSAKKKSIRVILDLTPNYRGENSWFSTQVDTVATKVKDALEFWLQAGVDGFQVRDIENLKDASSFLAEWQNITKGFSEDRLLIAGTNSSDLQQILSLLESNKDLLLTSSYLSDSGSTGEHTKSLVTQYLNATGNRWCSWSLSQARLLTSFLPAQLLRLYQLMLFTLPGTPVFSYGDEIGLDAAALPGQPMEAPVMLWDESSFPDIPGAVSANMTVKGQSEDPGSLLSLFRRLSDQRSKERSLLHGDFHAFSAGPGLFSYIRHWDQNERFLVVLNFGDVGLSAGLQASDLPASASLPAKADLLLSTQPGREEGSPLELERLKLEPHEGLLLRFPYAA

[5] = molecular target: T3, LAT1 (Homo sapiens, UniProt Q01650, F400V); experiment: inhibition of L-[…]Leu uptake in Xenopus oocytes; type: cell-based
T3 construct: gene SLC7A5; F400V LAT1 expressed in Xenopus oocytes; with CD98hc (4F2hc; SLC3A2)
T3 sequence (Q01650 whole entry F400V): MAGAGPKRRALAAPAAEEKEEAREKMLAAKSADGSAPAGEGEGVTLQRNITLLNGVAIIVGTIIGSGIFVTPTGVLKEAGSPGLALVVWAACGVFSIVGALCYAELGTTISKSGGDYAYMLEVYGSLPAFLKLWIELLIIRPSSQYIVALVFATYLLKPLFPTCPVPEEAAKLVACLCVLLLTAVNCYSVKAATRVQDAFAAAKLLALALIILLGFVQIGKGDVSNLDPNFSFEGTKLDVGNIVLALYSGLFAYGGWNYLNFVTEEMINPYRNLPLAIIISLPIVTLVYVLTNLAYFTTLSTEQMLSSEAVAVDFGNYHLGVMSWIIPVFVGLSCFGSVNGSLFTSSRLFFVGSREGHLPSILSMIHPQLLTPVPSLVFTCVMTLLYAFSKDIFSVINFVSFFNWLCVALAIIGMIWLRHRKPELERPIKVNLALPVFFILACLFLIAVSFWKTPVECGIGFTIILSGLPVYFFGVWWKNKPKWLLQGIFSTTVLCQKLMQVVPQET
T3 sequence (P08195 103-630 partner): as the sequence (P08195 103-630 partner) above

T1 sequence (Q01650 whole entry): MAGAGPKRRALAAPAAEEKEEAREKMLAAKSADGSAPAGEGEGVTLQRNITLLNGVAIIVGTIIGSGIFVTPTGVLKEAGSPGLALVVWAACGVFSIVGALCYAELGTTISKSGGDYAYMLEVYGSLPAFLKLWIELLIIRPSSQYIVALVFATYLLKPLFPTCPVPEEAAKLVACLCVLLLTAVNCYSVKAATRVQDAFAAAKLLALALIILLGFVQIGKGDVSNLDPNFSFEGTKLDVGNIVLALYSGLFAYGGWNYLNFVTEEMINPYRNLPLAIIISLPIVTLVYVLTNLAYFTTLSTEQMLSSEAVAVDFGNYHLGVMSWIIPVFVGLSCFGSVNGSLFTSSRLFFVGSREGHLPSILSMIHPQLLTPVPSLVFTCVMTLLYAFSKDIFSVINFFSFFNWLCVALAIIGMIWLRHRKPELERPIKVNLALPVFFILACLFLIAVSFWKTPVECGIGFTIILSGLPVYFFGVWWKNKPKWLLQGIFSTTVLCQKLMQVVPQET
T1 sequence (P08195 103-630 partner): as the sequence (P08195 103-630 partner) above

NC1(C(=O)O)CC2CCC1C2 (centres unmarked) [BCH, 2-aminobicyclo[2.2.1]heptane-2-carboxylic acid]
cryo-EM structure (3.7 Å, occluded); cis inhibition and counterflow assays in oo [1]: BCH is bound in the canonical substrate-binding pocket, with its carboxy and amino moieties recognized

N[C@@H](Cc1ccc(N(CCCl)CCCl)cc1)C(=O)O [melphalan]
cryo-EM structure (outward-open, nanodisc) [2]: bis-(2-chloroethyl)amino side group is placed in the space surrounded by TM3, TM6a and TM10

Nc1cc(COc2c(Cl)cc(C[C@H](N)C(=O)O)cc2Cl)c2oc(-c3ccccc3)nc2c1 [JPH203, (S)-2-amino-3-(4-((5-amino-2-phenylbenzo [d]oxazol-7-yl)methoxy)-3,5-dichlorophenyl) propanoic acid]
IC50 [3]: 542 nM | IC50 [4]: 36 nM | inhibition of L-[14C]Leu uptake in Xenopus oocytes [5]: the variant F400V retained its activity and was sensitive to JPH203
